“And” between values parts separate entries of the source, which are not always exact repeats. Identical values can stand only once. Like-named read-outs stand apart in the source and are kept apart here.
Key:
GABAARs [1] = type: cell-based, rat
[2] = Plasma EtOH concentrations; type: in vivo, rat
rats [3] = experiment: Elevated-plus maze; type: in vivo, rat; conditions: 48 hr withdrawal after EtOH 3 g/kg i.p. (E/W), vs V/W-group
rats [4] = experiment: Pentylenetetrazol; type: in vivo, rat; conditions: 48 hr withdrawal after EtOH 3 g/kg i.p. (E/W); PTZ 42 mg/kg
rats [5] = type: in vivo, rat; conditions: 20% EtOH/water (E/water-group)
GABAAR α4 subunit [6] = experiment: Western blot of total GABAAR α4 subunit in hippocampus 48 hr after withdrawal; type: in vivo, rat; conditions: hippocampus 48 hr after EtOH 3 g/kg i.p. (E/W), compared to V/W-group
GABAAR α4 subunit [7] = type: cell-based, rat; conditions: cultured neurons 24 hrs after EtOH 60 mM, 30 min
GABAARs [8] = type: in vivo, rat
rats [9] = experiment: Loss of Righting Reflex
GABAARs [10] = type: cell-based, rat; conditions: flumazenil (10 and 100 μM shown), cultured neurons
[11] = bath EtOH 60 mM, DGCs, naive rats
[12] = baseline mIPSCs, E/W: 48 hr after EtOH 5 g/kg gavage
[13] = baseline, E/W: 48 hr after EtOH 5 g/kg gavage
[14] = bath EtOH 60 mM, DGCs of V/W-group rats

Which “Effect on EtOH-induced potentiation of Itonic and mIPSCs” value (GABAARs [1]) does the source give for O=c1c(O)c(-c2ccc(O)c(O)c2)oc2cc(O)cc(O)c12 [quercetin, reference compound] here?
Its value is “did not change EtOH-induced potentiation”.

With CCO [EtOH] as the compound, how does the “Plasma [EtOH]” value ([2]; 30 min after EtOH 3 g/kg i.p. (E3)) read?
The value was 334.9 ± 37.8 mg/dL.

And the “Plasma [EtOH]” value ([2]; 60 min after EtOH 3 g/kg i.p. (E3))?
Its value is 353.7 ± 35.4 mg/dL.

And the “Plasma [EtOH] at sampling time points (min) 5” value ([2]; EtOH 4 g/kg i.p. (E4))?
The value was 365.5 ± 7.7.

What about the “Plasma [EtOH] at sampling time points (min) 30” value ([2]; EtOH 4 g/kg i.p. (E4)) of the same compound?
Its value is 379.5 ± 5.9.

And the “Plasma [EtOH] at sampling time points (min) 60” value ([2]; EtOH 4 g/kg i.p. (E4))?
Its value is 372.8 ± 5.4.

And the “Plasma [EtOH] at sampling time points (min) 90” value ([2]; EtOH 4 g/kg i.p. (E4))?
The value was 361.6 ± 8.2.

And the “Plasma [EtOH] at sampling time points (min) 180” value ([2]; EtOH 4 g/kg i.p. (E4))?
Its value is 324.6 ± 21.4.

What about the “Plasma [EtOH] at sampling time points (min) 0” value ([2]; EtOH 4 g/kg i.p. (E4), 0 = 0 to 3 min) of the same compound?
The value was 143.3 ± 23.4.

And the “Time in open and closed arms (EPM)” value (rats [3])?
The value was “significantly shorter time in open arms and longer time in closed arms”.

What about the PTZ-induced seizure duration (rats [4]) of the same compound?
Its PTZ-induced seizure duration is 6.5 ± 1.1 min.

What about the EtOH consumption (rats [5]; beginning of the 4th week) of the same compound?
The EtOH consumption was 7.4 ± 0.6 g/kg/day.

And the EtOH consumption (rats [5]; end of the 2nd week)?
The EtOH consumption was 3.9 ± 1.4 g/kg/day.

What about the Itonic (GABAARs [1]; [11]) of the same compound?
The Itonic was 46.9 ± 1.4 pA and 44.8 ± 2.3 pA.

What about the “mIPSCs (area)” value (GABAARs [1]; [11]) of the same compound?
Its value is 0.64 ± 0.02 nC and 0.78 ± 0.01 nC.

What about the “Total α4 protein level” value (GABAAR α4 subunit [6]) of the same compound?
Its value is 184.0 ± 26.0%.

What about the “Increase in surface expression of GABAAR α4 protein” value (GABAAR α4 subunit [7]) of the same compound?
Its value is 1.5 fold.

What about the “mIPSC area before acute EtOH” value (GABAARs [8]; DGCs of E/W-group rats (EtOH 5 g/kg gavage, 48 hr withdrawal)) of the same compound?
The value was 0.70 ± 0.03 nC.

What about the “Decay time” value (GABAARs [8]; [12]) of the same compound?
Its value is 4.0 ± 0.4 ms.

What about the “Frequency (HZ)” value (GABAARs [8]; [12]) of the same compound?
Its value is 11.4 ± 0.8 HZ.

What about the “Rise time” value (GABAARs [8]; [12]) of the same compound?
The value was 0.8 ± 0.3 ms.

And the “Itonic (pA)” value (GABAARs [8]; [13])?
Its value is 13.0 ± 1.0 pA.

What about the “mIPSC amplitude (pA)” value (GABAARs [8]; [13]) of the same compound?
The value was 38.3 ± 3.3 pA.

And the “mIPSC area (fC)” value (GABAARs [8]; [13])?
The value was 698.0 ± 33.7 fC.

And the “mIPSC area with acute EtOH” value (GABAARs [8]; bath EtOH 60 mM, DGCs of E/W-group rats (EtOH 5 g/kg gavage, 48 hr withdrawal))?
The value was 1.4 ± 0.04 nC.

What about the “Itonic with acute EtOH” value (GABAARs [8]; [14]) of the same compound?
Its value is 62.1 ± 3.3 pA.

And the “mIPSC area with acute EtOH” value (GABAARs [8]; [14])?
Its value is 0.78 ± 0.05 nC.

And the “Acute EtOH-induced LORR (tolerance)” value (rats [9]; 48 hr withdrawal after single EtOH 3 g/kg i.p. (E/W))?
The value was 10.8 ± 3.8 min.

What about the LORR duration (rats [9]; EtOH 3 g/kg i.p. alone (E3)) of the same compound?
Its LORR duration is 73.6 ± 8.0 min and 69.0 ± 11.3 min.

What about the LORR onset (rats [9]; EtOH 3 g/kg i.p. alone (E3)) of the same compound?
The LORR onset was 1.8 ± 0.2 min.

What about the “LORR duration” value (rats [9]; EtOH 4 g/kg i.p. alone (E4)) of the same compound?
Its value is 112.8 ± 8.0 min.

And the “Additional LORR after the 30 min time point” value (rats [9]; EtOH, saline injected 30 min after EtOH)?
Its value is 42 ± 9.1 min.

Which “Effect on DHM (1 μM) enhancement of Itonic and mIPSCs” value (GABAARs [10]) does the source give for CCOC(=O)c1ncn2c1CN(C)C(=O)c1cc(F)ccc1-2 [flumazenil, reference compound] here?
Its value is “inhibited the DHM enhancement on GABAAR-currents in a concentration-dependent manner”.

And the “Effect on EtOH-induced LORR” value (rats [9]; flumazenil 10 mg/kg co-injected with EtOH 3 g/kg (E3+F10), vs E3-group)?
Its value is “did not alter LORR”.

What about the LORR duration (rats [9]; flumazenil 10 mg/kg with EtOH 3 g/kg and DHM 3 mg/kg (E3+D3+F10)) of the same compound?
The LORR duration was 56.1 ± 4.6 min.

What about the LORR duration (rats [9]; flumazenil 10 mg/kg with EtOH 3 g/kg and DHM 10 mg/kg (E3+D10+F10)) of the same compound?
Its LORR duration is 29.3 ± 4.8 min.

What about the “LORR duration” value (rats [9]; flumazenil 20 mg/kg i.p. alone (F20)) of the same compound?
The value was 0 min.

What about the LORR duration (rats [9]; flumazenil 30 mg/kg with EtOH 3 g/kg and DHM 3 mg/kg (E3+D3+F30)) of the same compound?
The LORR duration was 58.2 ± 3.9 min.

What about the “LORR duration” value (rats [9]; flumazenil 200 mg/kg i.p. alone (F200)) of the same compound?
Its value is 0 min.

And the LORR induction (rats [9]; flumazenil 20, 200 mg/kg alone)?
Its LORR induction is “did not induce LORR”.

Source: article PMC3292407 (The Journal of Neuroscience, 2012)
